Experimental findings from ChEMBL document CHEMBL5512688 (J Med Chem, 2024) are described below.

For series [1], the target named is T1, Wee1-like protein kinase (Homo sapiens, UniProt P30291). Nature of the series: Inhibition of human Wee1 (215 to 647 residues) using polyornithine/tyrosine (4:1) as substrate incubated for 5 mins in presence of ATP by micro beta plate reader analysis.
The subject of series [2] is A-427. As to the kind of experiment: Antiproliferative activity against human A-427 cells assessed as inhibition of cell growth incubated for 72 hrs by CCK-8 assay. It counts as functional, cell-based. The settings on record: A-427, 72 h.
Series [3] in a line: Metabolic stability in human liver microsome assessed as parent compound remaining measured at 60 mins by LCMS/MS analysis. It is filed as ADME. The following applies: liver microsomes, read-out: Stability.
Series [4] in a line: Metabolic stability in mouse liver microsome assessed as parent compound remaining measured at 60 mins by LCMS/MS analysis. The following applies: liver microsomes, read-out: Stability. It counts as ADME.
The nature of series [5]: AUC (0 to 24 hrs) in ICR mouse at 1 mg/kg, iv measured upto 24 hrs by LC-MS/MS analysis. The following applies: in vivo. It counts as ADME, organism-based.
A short description of series [6]: Half life in ICR mouse at 1 mg/kg, iv measured upto 24 hrs by LC-MS/MS analysis. It is filed as ADME, organism-based. The settings on record: in vivo.
Series [7] is described as follows: Volume of distribution in ICR mouse at 1 mg/kg, iv measured upto 24 hrs by LC-MS/MS analysis. It is filed as ADME, organism-based. The following applies: in vivo.
A short description of series [8]: Clearance in ICR mouse at 1 mg/kg, iv measured upto 24 hrs by LC-MS/MS analysis. The settings on record: in vivo. It is filed as ADME, organism-based.
Series [9] can be described thus: AUC (0 to 24 hrs) in ICR mouse at 60 mg/kg, IG measured upto 24 hrs by LC-MS/MS analysis. The following applies: in vivo, po. It counts as ADME, organism-based.
Series [10] is described as follows: Half life in ICR mouse at 60 mg/kg, IG measured upto 24 hrs by LC-MS/MS analysis. The settings on record: in vivo, po. It counts as ADME, organism-based.
Series [11] is described as follows: Bioavailability in ICR mouse at 60 mg/kg, IG measured upto 24 hrs by LC-MS/MS analysis. The settings on record: in vivo, po. It counts as ADME, organism-based.
Series [12] deals with LoVo. As to the kind of experiment: Antiproliferative activity against human LoVo cells assessed as inhibition of cell growth incubated for 72 hrs by CCK-8 method. It counts as functional, cell-based.
Series [13] addresses T1, Wee1-like protein kinase. As to the kind of experiment: Inhibition of Wee1 in human U2OS cells assessed as reduction in CDK1 phosphorylation measured for 1 hr by Western blot analysis. It counts as cell-based.
For series [14], the system named is LoVo. As to the kind of experiment: Antitumor activity against human LoVo cells xenografted in female BALB/c nude mouse assessed as tumor growth inhibition at 60 mg/kg, IG administered once daily for 27 days. The following applies: po, 648 h, time 27 day, read-out: TGI. It is filed as functional.
Series [15] in a line: Toxicity in female BALB/c nude mouse xenografted with human LoVo cells assessed as body weight loss at 60 mg/kg, IG administered once daily for 27 days. It counts as organism-based. The settings on record: in vivo, po, 648 h, time 27 day.
Series [16] is described as follows: Acute toxicity in female C57 mouse assessed as body weight loss at 2000 mg/kg, IG measured for 7 days. It is filed as organism-based. The following applies: in vivo, po, 168 h, time 7 day.

SMILES strings stand for the structures.

T1 sequence (P30291 whole entry, the tested form may be a part): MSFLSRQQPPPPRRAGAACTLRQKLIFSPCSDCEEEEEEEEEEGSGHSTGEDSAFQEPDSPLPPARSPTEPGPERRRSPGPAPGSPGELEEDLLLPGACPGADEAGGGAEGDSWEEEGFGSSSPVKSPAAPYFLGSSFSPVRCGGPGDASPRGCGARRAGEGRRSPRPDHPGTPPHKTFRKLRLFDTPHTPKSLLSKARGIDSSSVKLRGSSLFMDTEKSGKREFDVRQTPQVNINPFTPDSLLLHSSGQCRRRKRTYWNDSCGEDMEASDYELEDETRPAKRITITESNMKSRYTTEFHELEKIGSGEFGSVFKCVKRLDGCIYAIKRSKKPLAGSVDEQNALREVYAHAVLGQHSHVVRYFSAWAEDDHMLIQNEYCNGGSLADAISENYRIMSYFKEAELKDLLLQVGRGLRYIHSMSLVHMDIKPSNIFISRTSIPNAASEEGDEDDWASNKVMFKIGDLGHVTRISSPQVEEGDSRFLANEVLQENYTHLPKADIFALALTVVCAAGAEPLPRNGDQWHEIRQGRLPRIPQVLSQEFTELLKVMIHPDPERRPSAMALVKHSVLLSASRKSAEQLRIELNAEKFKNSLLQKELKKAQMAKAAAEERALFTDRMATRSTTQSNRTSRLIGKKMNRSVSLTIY

On to `C=CCn1c(=O)c2cnc(Nc3ccc(N4CCN(C)CC4)cc3)nc2n1-c1cccc(-c2ncc(C)cn2)n1`, for which the IC50 in series [1] was determined as 2.2 nM; in [2] it was 476 nM; in series [12], 555 nM; in [13], 367 nM. In addition, the figures for the remaining at 1 h in [3] and in series [4] were 71.2% and 59.4%, respectively. Further, the figures for the AUC(0-t) at 24 h in series [5] and in series [9] were 1160 ng·h/mL and 58100 ng·h/mL, respectively. Also, the figures for the half-life in [6] and in series [10] were 99 min and 234 min, respectively. Moreover, the Vd in series [7] was 1.98 L/kg. For the same compound, the clearance in series [8] was 14.2 mL/min/kg. For the same compound, the bioavailability in series [11] came to 83.1%. For the same compound, the inhibition in vivo at 60 mg/kg in series [14] is 72%.

As to `C=CCn1c(=O)c2cnc(Nc3ccc(N4[C@@H]5CC[C@H]4CN(C)C5)cc3)nc2n1-c1cccc(-c2ncccn2)n1`, the IC50 is 26 nM in [1], 115 nM in series [2], 243 nM in series [12] and 166 nM in series [13]. The remaining at 1 h in series [3] was found to be 64.2%; in [4], 82.3%. The AUC(0-t) at 24 h in series [5] was 124 ng·h/mL; in series [9], 6810 ng·h/mL. Besides, the half-life in [6] was 82.8 min; in [10] it was 178 min. Besides, in series [7], the Vd turned out to be 13.4 L/kg. Moreover, in series [8], the clearance was 128 mL/min/kg. The bioavailability in [11] came to 91.3%. Further, the inhibition in vivo at 60 mg/kg in series [14] came to 53%.

Turning to `C=CCn1c(=O)c2cnc(Nc3ccc(N4CCN(CC)CC4)cc3)nc2n1-c1cccc(-c2cnccn2)n1`, the IC50 in [1] was 1.6 nM; in series [2], 88 nM; in series [12], 92 nM; in [13], 341 nM. In addition, the results for the remaining at 1 h in [3] and in series [4] were 65.2% and 18%, respectively. In addition, the results for the AUC(0-t) at 24 h in [5] and in series [9] were 151 ng·h/mL and 4200 ng·h/mL, respectively. For the same compound, in [6], the half-life was 48 min. For the same compound, the Vd in series [7] was found to be 7.4 L/kg. Moreover, the clearance in series [8] was 108 mL/min/kg. In [11], this compound came in with a bioavailability of 46.5%. For the same compound, the inhibition in vivo at 60 mg/kg in [14] amounted to 69%. In series [15], the Activity entry is reported as “Toxic”.

Turning to `C=CCn1c(=O)c2cnc(Nc3ccc(N4CCN(C)CC4)cc3)nc2n1-c1cccc(C(C)(C)O)n1` [ADAVOSERTIB], the results for the IC50 in series [2] and in series [12] were 311 nM and 328 nM, respectively. The remaining at 1 h in series [3] is 32.7%; in series [4], 9.67%. In addition, the values for the AUC(0-t) at 24 h in [5] and in series [9] were 47.1 ng·h/mL and 2320 ng·h/mL, respectively. Also, the half-life in series [6] was 35.4 min; in series [10] it was 100 min. Moreover, the Vd in [7] was determined as 16.1 L/kg. For the same compound, in [8], the clearance was 350 mL/min/kg. Moreover, the bioavailability in series [11] was determined as 82.1%. Besides, the inhibition in vivo at 60 mg/kg in series [14] was 70%. Besides, the Activity result in [16] was “Toxic”.
